Assay: excess molar enthalpy (molar enthalpy of mixing); xn = mol fraction of the nth substance listed
Conditions: 298.15 K, 101 kPa, Liquid, Calvet calorimetry

CCCCCCCCC [nonane] + CCO
Conditions | excess molar enthalpy [kcal/mol]
x2 = 0.0507 | 0.087
x2 = 0.1378 | 0.132
x2 = 0.2453 | 0.156
x2 = 0.4164 | 0.168
x2 = 0.5022 | 0.162
x2 = 0.586 | 0.156
x2 = 0.6518 | 0.151
x2 = 0.6895 | 0.143
x2 = 0.749 | 0.13
x2 = 0.7877 | 0.12
x2 = 0.8433 | 0.1
x2 = 0.8715 | 0.0899
x2 = 0.9065 | 0.0715
x2 = 0.9296 | 0.0574
x2 = 0.9562 | 0.0387

From the NIST ThermoML archive (doi:10.1021/je200851a)
